From publication PMC5006990 (PLoS ONE, 2016)
Converted amounts (≈) assume the structure as drawn.

Columns and labels:
[1] = test system: M. tuberculosis ATCC 35801 (strain Erdman); test: Microtiter broth dilution MIC, Mtb Erdman; settings: resistance pattern, S3 Table
Mtb 56 = test: microbe, parasite or virus in culture; assay type: cell-based, Mycobacterium tuberculosis; settings: Mycobacterium tuberculosis, 56, read-out: MIC (µg/ml) Mtb 56
Mtb 276 = test: microbe, parasite or virus in culture; assay type: cell-based, Mycobacterium tuberculosis; settings: Mycobacterium tuberculosis, 276, read-out: MIC (µg/ml) Mtb 276
Mtb 352 = test: microbe, parasite or virus in culture; assay type: cell-based, Mycobacterium tuberculosis; settings: Mycobacterium tuberculosis, 352, read-out: MIC (µg/ml) Mtb 352
Mtb 365 = test: microbe, parasite or virus in culture; assay type: cell-based, Mycobacterium tuberculosis; settings: Mycobacterium tuberculosis, 365, read-out: MIC (µg/ml) Mtb 365
[2] = test system: MDR and XDR strains of M. tuberculosis; test: microbe, parasite or virus in culture; assay type: cell-based; settings: Mycobacterium tuberculosis, read-out: MIC values across the resistant strains
Mtb 5 = test: microbe, parasite or virus in culture; assay type: cell-based, Mycobacterium tuberculosis; settings: Mycobacterium tuberculosis, 5, read-out: MIC (µg/ml) Mtb 5

Row | Structure (SMILES) | MIC (µg/ml) Mtb Erdmann [1] [µg/mL] | MIC (Mtb 56) [µg/mL] | MIC (Mtb 276) [µg/mL] | MIC (Mtb 352) [µg/mL] | MIC (Mtb 365) [µg/mL] | MIC [2] [µg/mL] | MIC (Mtb 5) [µg/mL]
1 | CC[C@@H](CO)NCCN[C@@H](CC)CO [Ethambutol, reference compound] | 1 (≈ 4.89 µM) | 32 (≈ 157 µM) | 4 (≈ 19.6 µM) | 1 (≈ 4.89 µM) | 32 (≈ 157 µM) |  | 
2 | NNC(=O)c1ccncc1 [INH, Isoniazid, reference compound] | 0.06 (≈ 0.438 µM) | 2 (≈ 14.6 µM) | 0.25 (≈ 1.82 µM) | 1 (≈ 7.29 µM) | 4 (≈ 29.2 µM) | 0.25 to 4 (≈ 1.82 to 29.2 µM) | 2 (≈ 14.6 µM)
3 | COc1c(N2C[C@@H]3CCCN[C@@H]3C2)c(F)cc2c(=O)c(C(=O)O)cn(C3CC3)c12 [Moxifloxacin, reference compound] | 0.06 (≈ 0.149 µM) |  |  |  | 0.06 (≈ 0.149 µM) |  | 1 (≈ 2.49 µM)
4 | CO[C@H]1/C=C/O[C@@]2(C)Oc3c(C)c(O)c4c(O)c(c(/C=N/N5CCN(C)CC5)c(O)c4c3C2=O)NC(=O)/C(C)=C\C=C\[C@H](C)[C@H](O)[C@@H](C)[C@@H](O)[C@@H](C)[C@H](OC(C)=O)[C@@H]1C [RIF, rifampin, reference compound] | 0.004 (≈ 0.00486 µM) | 32 (≈ 38.9 µM) | 0.015 (≈ 0.0182 µM) | 0.001 (≈ 0.00122 µM) | 64 (≈ 77.8 µM) |  | 8 (≈ 9.72 µM)
5 | [H]/N=C(/N)N[C@H]1[C@H](O)[C@@H](O)[C@H](O[C@@H]2O[C@@H](C)[C@](O)(C=O)[C@H]2O[C@@H]2O[C@@H](CO)[C@H](O)[C@@H](O)[C@@H]2NC)[C@@H](N/C(N)=N\[H])[C@@H]1O [Streptomycin, reference compound] |  | 32 (≈ 55 µM) | 0.25 (≈ 0.43 µM) | 0.25 (≈ 0.43 µM) | 32 (≈ 55 µM) |  | 
